In ChEMBL document CHEMBL1142734, “Biological properties of D- and L-1-deoxyazasugars” (J Med Chem, 2005):

How the values were obtained:
[1] = molecular target: T1, Beta-mannosidase (Rattus norvegicus) (UniProt Q4FZV0); test: Percent inhibition of beta-mannosidase of rat epididymis at 1000 uM
T1 sequence (whole entry): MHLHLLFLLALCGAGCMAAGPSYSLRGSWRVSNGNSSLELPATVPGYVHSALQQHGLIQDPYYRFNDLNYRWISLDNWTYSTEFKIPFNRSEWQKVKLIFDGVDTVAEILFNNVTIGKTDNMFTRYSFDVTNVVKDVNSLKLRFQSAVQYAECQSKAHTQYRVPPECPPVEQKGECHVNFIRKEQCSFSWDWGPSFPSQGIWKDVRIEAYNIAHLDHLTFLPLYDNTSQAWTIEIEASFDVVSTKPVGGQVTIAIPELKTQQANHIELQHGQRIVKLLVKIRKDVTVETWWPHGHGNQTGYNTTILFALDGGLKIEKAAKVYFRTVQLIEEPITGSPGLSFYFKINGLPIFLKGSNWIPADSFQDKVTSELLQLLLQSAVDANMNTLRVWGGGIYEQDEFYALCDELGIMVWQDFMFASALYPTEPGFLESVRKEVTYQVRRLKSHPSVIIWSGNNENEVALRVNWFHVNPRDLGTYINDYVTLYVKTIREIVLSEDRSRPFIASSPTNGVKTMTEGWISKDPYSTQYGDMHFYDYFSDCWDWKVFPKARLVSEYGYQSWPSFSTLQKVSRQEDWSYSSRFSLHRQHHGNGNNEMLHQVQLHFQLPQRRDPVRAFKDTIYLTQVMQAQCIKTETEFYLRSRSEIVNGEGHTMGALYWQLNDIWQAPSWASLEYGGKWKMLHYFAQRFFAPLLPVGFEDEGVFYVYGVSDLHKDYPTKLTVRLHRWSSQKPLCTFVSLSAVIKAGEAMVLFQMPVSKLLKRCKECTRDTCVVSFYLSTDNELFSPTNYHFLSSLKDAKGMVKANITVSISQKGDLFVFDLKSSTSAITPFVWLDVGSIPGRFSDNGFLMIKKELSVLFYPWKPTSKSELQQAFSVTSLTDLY

[2] = molecular target: T2, Beta-galactosidase (Bos taurus) (UniProt Q58D55); test: Percent inhibition of beta-galactosidase of bovine liver at 1000 uM
T2 sequence (whole entry): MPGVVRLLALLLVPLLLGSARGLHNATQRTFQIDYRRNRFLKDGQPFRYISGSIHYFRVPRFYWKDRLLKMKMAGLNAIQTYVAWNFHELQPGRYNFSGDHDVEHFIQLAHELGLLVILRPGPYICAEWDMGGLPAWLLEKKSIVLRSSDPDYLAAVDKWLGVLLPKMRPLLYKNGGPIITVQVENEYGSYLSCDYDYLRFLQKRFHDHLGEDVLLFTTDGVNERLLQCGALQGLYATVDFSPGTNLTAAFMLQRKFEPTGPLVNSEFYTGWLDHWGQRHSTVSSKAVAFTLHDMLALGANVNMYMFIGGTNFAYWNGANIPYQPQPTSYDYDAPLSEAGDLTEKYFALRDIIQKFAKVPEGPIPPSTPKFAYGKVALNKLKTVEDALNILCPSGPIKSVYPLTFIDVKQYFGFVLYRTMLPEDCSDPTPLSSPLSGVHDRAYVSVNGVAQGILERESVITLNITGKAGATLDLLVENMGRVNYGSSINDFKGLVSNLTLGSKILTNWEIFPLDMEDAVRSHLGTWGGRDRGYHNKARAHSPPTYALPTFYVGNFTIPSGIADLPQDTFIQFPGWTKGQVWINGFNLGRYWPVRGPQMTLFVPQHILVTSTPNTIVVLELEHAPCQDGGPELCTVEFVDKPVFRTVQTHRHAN

[3] = molecular target: T3, Cytosolic beta-glucosidase (Homo sapiens) (UniProt Q9H227); details: 1000 uM
T3 sequence (whole entry): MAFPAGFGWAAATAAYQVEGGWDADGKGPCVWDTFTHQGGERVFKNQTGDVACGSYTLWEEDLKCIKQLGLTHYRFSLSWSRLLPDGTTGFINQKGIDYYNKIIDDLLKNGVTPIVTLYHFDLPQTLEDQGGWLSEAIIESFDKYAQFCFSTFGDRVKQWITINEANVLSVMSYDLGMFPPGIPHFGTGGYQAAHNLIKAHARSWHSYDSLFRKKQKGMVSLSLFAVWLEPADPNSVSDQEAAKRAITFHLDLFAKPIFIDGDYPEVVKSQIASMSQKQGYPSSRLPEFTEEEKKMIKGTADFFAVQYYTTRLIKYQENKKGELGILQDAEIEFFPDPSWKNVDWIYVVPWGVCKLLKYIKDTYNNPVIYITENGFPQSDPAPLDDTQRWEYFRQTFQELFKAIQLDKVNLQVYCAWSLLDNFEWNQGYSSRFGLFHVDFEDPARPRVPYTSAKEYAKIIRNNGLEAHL

[4] = molecular target: T4, Alpha-galactosidase C (Aspergillus niger) (UniProt Q9UUZ4); test: Percent inhibition of alpha-galactosidase of Aspergillus niger at 1000 uM
T4 sequence (whole entry): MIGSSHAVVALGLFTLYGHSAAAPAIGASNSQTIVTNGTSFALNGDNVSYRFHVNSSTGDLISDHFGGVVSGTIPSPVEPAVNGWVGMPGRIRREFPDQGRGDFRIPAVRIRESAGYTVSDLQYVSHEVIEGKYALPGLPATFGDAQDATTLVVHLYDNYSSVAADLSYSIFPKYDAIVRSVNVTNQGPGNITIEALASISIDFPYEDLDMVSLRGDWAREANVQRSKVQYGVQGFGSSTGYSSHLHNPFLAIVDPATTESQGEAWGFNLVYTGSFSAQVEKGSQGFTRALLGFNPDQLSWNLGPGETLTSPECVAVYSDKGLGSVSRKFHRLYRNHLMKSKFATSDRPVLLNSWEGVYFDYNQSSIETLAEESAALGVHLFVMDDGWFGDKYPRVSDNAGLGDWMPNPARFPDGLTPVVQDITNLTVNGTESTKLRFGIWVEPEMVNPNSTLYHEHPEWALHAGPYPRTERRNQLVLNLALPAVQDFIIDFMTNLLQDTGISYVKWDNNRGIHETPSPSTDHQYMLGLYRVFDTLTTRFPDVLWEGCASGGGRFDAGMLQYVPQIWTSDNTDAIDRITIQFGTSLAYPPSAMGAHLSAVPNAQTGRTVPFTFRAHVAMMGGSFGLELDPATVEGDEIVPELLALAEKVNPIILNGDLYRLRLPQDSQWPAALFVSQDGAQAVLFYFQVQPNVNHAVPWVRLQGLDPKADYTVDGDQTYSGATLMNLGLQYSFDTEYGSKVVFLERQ

[5] = Inhibitory concentration against alpha-galactosidase of coffee bean; design: species or system Coffea arabica

inhibition [1]	inhibition [2]	inhibition [3]	inhibition [4]	IC50 [5]	Structure (SMILES)
< 50%	< 50%	< 50%	< 50%	–	OC[C@@H]1NC[C@H](O)[C@@H](O)[C@@H]1O
< 50%	< 50%	< 50%	< 50%	260 µM	OC[C@H]1NC[C@H](O)[C@H](O)[C@@H]1O
–	–	–	< 50%	880 µM	OC[C@H]1NC[C@H](O)[C@@H](O)[C@@H]1O [DUVOGLUSTAT]
< 50%	< 50%	< 50%	–	0.003 µM	OC[C@H]1NC[C@H](O)[C@@H](O)[C@H]1O
< 50%	–	–	< 50%	67 µM	OC[C@H]1NC[C@@H](O)[C@H](O)[C@H]1O
< 50%	< 50%	< 50%	< 50%	290 µM	OC[C@@H]1NC[C@@H](O)[C@@H](O)[C@H]1O

The next lines start with the molecule.

Structure (SMILES)	inhibition [1]	inhibition [2]	inhibition [3]	inhibition [4]	IC50 [5]
OC[C@@H]1NC[C@@H](O)[C@H](O)[C@H]1O	< 50%	–	< 50%	< 50%	–
OC[C@@H]1NC[C@@H](O)[C@H](O)[C@@H]1O	< 50%	–	< 50%	< 50%	13 µM
OC[C@H]1NC[C@@H](O)[C@@H](O)[C@@H]1O [DEOXYMANNOJIRIMYCIN]	< 50%	< 50%	< 50%	< 50%	–
OC[C@@H]1NC[C@@H](O)[C@@H](O)[C@@H]1O	< 50%	< 50%	< 50%	< 50%	–
OC[C@@H]1NC[C@H](O)[C@H](O)[C@H]1O	< 50%	< 50%	< 50%	< 50%	–
OC[C@H]1NC[C@H](O)[C@H](O)[C@H]1O	< 50%	< 50%	< 50%	< 50%	160 µM
